11 molecules from ChEMBL document CHEMBL4402577, “Discovery and Optimization of a Compound Series Active against Trypanosoma cruzi, the Causative Agent of Chagas Disease” (J Med Chem, 2020) can be followed below.

The structures appear in SMILES notation. Converted amounts (≈) assume the structure as drawn.

System in one series: not listed separately
The series can be described thus: Kinetic aqueous solubility of compound in DMSO by nephelometric analysis. The series is classed as physicochemical. As to conditions: read-out: Kinetic_solubility.
In the case of `CC(=O)Nc1ccc2[nH]c(=O)n([C@H]3CC[C@H](C(C)(C)C)CC3)c(=O)c2c1`, the solubility kinetic was found to be 131 µM (≈ 46.8 µg/mL).

On to `CC[C@H]1CC[C@H](n2c(=O)[nH]c3ncc(N)cc3c2=O)CC1`, for which the solubility kinetic is 55 µM (≈ 15.9 µg/mL).

Take `CC[C@H]1CC[C@@H](n2c(=O)[nH]c3ccc(NC(C)=O)cc3c2=O)CC1`: the solubility kinetic was determined as 73 µM (≈ 24 µg/mL).

In the case of `CC[C@H]1CC[C@@H](n2c(=O)[nH]c3ncc(NC(C)=O)cc3c2=O)CC1`, the solubility kinetic was 48 µM (≈ 15.9 µg/mL).

Consider `CC(=O)Nc1ccc2[nH]c(=O)n([C@H]3CO[C@@H](C(C)(C)C)OC3)c(=O)c2c1`, for which the solubility kinetic was > 270 µM.

Turning to `CC[C@H]1CC[C@H](n2c(=O)[nH]c3ncc(NC(C)=O)cc3c2=O)CC1`, the solubility kinetic was 22 µM (≈ 7.27 µg/mL).

As to `CC(C)[C@H]1CC[C@@H](n2c(=O)[nH]c3ncc(N)cc3c2=O)CC1`, the solubility kinetic amounted to 17 µM (≈ 5.14 µg/mL).

For `CC[C@H]1CC[C@@H](n2c(=O)[nH]c3ncc(N)cc3c2=O)CC1`, the solubility kinetic was < 17 µM.

As for `CC(=O)Nc1ccc2[nH]c(=O)n([C@H]3CC[C@@H](C(C)(C)C)CC3)c(=O)c2c1`, the solubility kinetic came to 95 µM (≈ 34 µg/mL).

For `CC[C@H]1CC[C@@H](n2c(=O)[nH]c3ccc(N)cc3c2=O)CC1`, the solubility kinetic is > 350 µM.

As for `CCC[C@H]1CC[C@@H](n2c(=O)[nH]c3ccc(NC(C)=O)cc3c2=O)CC1`, the solubility kinetic stood at 102 µM (≈ 35 µg/mL).

A further series relates to L6. The series can be described thus: Cytotoxicity against rat L6 cells incubated for 70 hrs by resazurin dye based assay. Conditions: L6, 70 h. The class given is cell-based. A general note: Resazurin is reduced to fluorescent resorufin, in cell work by metabolically active cells.
Broadly, the EC50 is the concentration that produces a half-maximal response. A high value points to lower potency in that assay. `CC(=O)Nc1ccc2[nH]c(=O)n([C@H]3CC[C@H](C(C)(C)C)CC3)c(=O)c2c1` gave a concentration for a half-maximal effect (EC50) of 3.9 µM. That is a single-digit micromolar value.

Take `CC[C@H]1CC[C@H](n2c(=O)[nH]c3ncc(N)cc3c2=O)CC1`: the response was half-maximal at 51 µM (EC50).

Molecule `CC[C@H]1CC[C@@H](n2c(=O)[nH]c3ccc(NC(C)=O)cc3c2=O)CC1` registered an EC50 of 39 µM. The EC50 values of the last two molecules are within 1.5-fold of each other.

Molecule `CC[C@H]1CC[C@@H](n2c(=O)[nH]c3ncc(NC(C)=O)cc3c2=O)CC1` gave an EC50 of 48 µM.

In turn, `CC(=O)Nc1ccc2[nH]c(=O)n([C@H]3CO[C@@H](C(C)(C)C)OC3)c(=O)c2c1` registered a 50% effective concentration (EC50) of 183 µM.

Consider `CC[C@H]1CC[C@H](n2c(=O)[nH]c3ncc(NC(C)=O)cc3c2=O)CC1`, for which the EC50 was 215 µM.

For the molecule `CC(C)[C@H]1CC[C@@H](n2c(=O)[nH]c3ncc(N)cc3c2=O)CC1`, the EC50 was 46 µM.

Take `CC[C@H]1CC[C@@H](n2c(=O)[nH]c3ncc(N)cc3c2=O)CC1`: it took 250 µM to reach a half-maximal effect (EC50).

`CC(=O)Nc1ccc2[nH]c(=O)n([C@H]3CC[C@@H](C(C)(C)C)CC3)c(=O)c2c1` gave an EC50 of 5 µM. Against the preceding molecule, the EC50 is about 50-fold lower.

In turn, `CC[C@H]1CC[C@@H](n2c(=O)[nH]c3ccc(N)cc3c2=O)CC1` came in with an EC50 of 52 µM.

As for `CCC[C@H]1CC[C@@H](n2c(=O)[nH]c3ccc(NC(C)=O)cc3c2=O)CC1`, the concentration giving a half-maximal response (EC50) came out at 14 µM.

System in the next series: not listed separately
The experiment in a line: Selectivity ratio, EC50 for cytotoxicity against rat L6 cells to EC50 for antitrypanosomal activity against Trypanosoma cruzi Tulahuen strain C2C4 trypomastigotes infected in rat L6 cells. The class given is toxicity, cell-based. As to conditions: read-out: Ratio EC50.
As to `CC(=O)Nc1ccc2[nH]c(=O)n([C@H]3CC[C@H](C(C)(C)C)CC3)c(=O)c2c1`, the selectivity ratio came to 180.

Turning to `CC[C@H]1CC[C@H](n2c(=O)[nH]c3ncc(N)cc3c2=O)CC1`, the selectivity ratio amounted to 150.

Turning to `CC[C@H]1CC[C@@H](n2c(=O)[nH]c3ccc(NC(C)=O)cc3c2=O)CC1`, the selectivity ratio was found to be 460.

Take `CC[C@H]1CC[C@@H](n2c(=O)[nH]c3ncc(NC(C)=O)cc3c2=O)CC1`: the selectivity ratio came to 150.

With `CC(=O)Nc1ccc2[nH]c(=O)n([C@H]3CO[C@@H](C(C)(C)C)OC3)c(=O)c2c1`, the selectivity ratio is 29.

With `CC[C@H]1CC[C@H](n2c(=O)[nH]c3ncc(NC(C)=O)cc3c2=O)CC1`, the selectivity ratio was found to be 720.

In the case of `CC(C)[C@H]1CC[C@@H](n2c(=O)[nH]c3ncc(N)cc3c2=O)CC1`, the selectivity ratio is 81.

`CC[C@H]1CC[C@@H](n2c(=O)[nH]c3ncc(N)cc3c2=O)CC1`: the selectivity ratio turned out to be 210.

For the molecule `CC(=O)Nc1ccc2[nH]c(=O)n([C@H]3CC[C@@H](C(C)(C)C)CC3)c(=O)c2c1`, the selectivity ratio was found to be 290.

With `CC[C@H]1CC[C@@H](n2c(=O)[nH]c3ccc(N)cc3c2=O)CC1`, the selectivity ratio was found to be 160.

For `CCC[C@H]1CC[C@@H](n2c(=O)[nH]c3ccc(NC(C)=O)cc3c2=O)CC1`, the selectivity ratio was found to be 700.

In a further series the test system is Trypanosoma cruzi. The series can be described thus: Antitrypanosomal activity against Trypanosoma cruzi Tulahuen strain C2C4 trypomastigotes infected in rat L6 cells incubated for 96 hrs by photometric method based assay. The series is classed as functional, organism-based. As to conditions: Tulahuen strain C2C4, L6, 96 h.
`CC(=O)Nc1ccc2[nH]c(=O)n([C@H]3CC[C@H](C(C)(C)C)CC3)c(=O)c2c1` showed an EC50 of 0.022 µM.

As for `CC[C@H]1CC[C@H](n2c(=O)[nH]c3ncc(N)cc3c2=O)CC1`, the EC50 was found to be 0.34 µM.

Turning to `CC[C@H]1CC[C@@H](n2c(=O)[nH]c3ccc(NC(C)=O)cc3c2=O)CC1`, a half-maximal effect (EC50) was put at 0.085 µM.

As to `CC[C@H]1CC[C@@H](n2c(=O)[nH]c3ncc(NC(C)=O)cc3c2=O)CC1`, the EC50 is 0.33 µM.

Molecule `CC(=O)Nc1ccc2[nH]c(=O)n([C@H]3CO[C@@H](C(C)(C)C)OC3)c(=O)c2c1` registered an EC50 of 6.4 µM.

`CC[C@H]1CC[C@H](n2c(=O)[nH]c3ncc(NC(C)=O)cc3c2=O)CC1` showed an EC50 of 0.3 µM.

On to `CC(C)[C@H]1CC[C@@H](n2c(=O)[nH]c3ncc(N)cc3c2=O)CC1`, for which the concentration for a half-maximal effect (EC50) is 0.57 µM.

`CC[C@H]1CC[C@@H](n2c(=O)[nH]c3ncc(N)cc3c2=O)CC1`: the EC50 came to 1.2 µM.

For the molecule `CC(=O)Nc1ccc2[nH]c(=O)n([C@H]3CC[C@@H](C(C)(C)C)CC3)c(=O)c2c1`, the EC50 came out at 0.017 µM.

Usually EC90 stands for the concentration needed for an effect of 90%. High values mean weaker potency, low ones greater potency. As to `CC[C@H]1CC[C@@H](n2c(=O)[nH]c3ccc(N)cc3c2=O)CC1`, it took 0.33 µM to reach a half-maximal effect (EC50) and the EC90 was 1.2 µg/mL (≈ 4.18 µM).

Regarding `CCC[C@H]1CC[C@@H](n2c(=O)[nH]c3ccc(NC(C)=O)cc3c2=O)CC1`, the response was half-maximal at 0.02 µM (EC50).

System in the next series: not listed separately
The series can be described thus: Intrinsic clearance in CD1 mouse liver microsomes at 0.5 uM measured up to 30 mins in presence of NADPH by UPLC-MSMS analysis. The class given is ADME, Microsome. Conditions: 0.5 h. In general terms: Microsomes from liver hold many membrane-bound enzymes, among them those of drug oxidation.
On to `CC(=O)Nc1ccc2[nH]c(=O)n([C@H]3CC[C@H](C(C)(C)C)CC3)c(=O)c2c1`, for which the intrinsic clearance is 3.2 mL/min/g.

Consider `CC[C@H]1CC[C@H](n2c(=O)[nH]c3ncc(N)cc3c2=O)CC1`, for which the intrinsic clearance was 0.9 mL/min/g.

With `CC[C@H]1CC[C@@H](n2c(=O)[nH]c3ccc(NC(C)=O)cc3c2=O)CC1`, the intrinsic clearance stood at 12 mL/min/g.

With `CC[C@H]1CC[C@@H](n2c(=O)[nH]c3ncc(NC(C)=O)cc3c2=O)CC1`, the intrinsic clearance was found to be 2.7 mL/min/g.

With `CC(=O)Nc1ccc2[nH]c(=O)n([C@H]3CO[C@@H](C(C)(C)C)OC3)c(=O)c2c1`, the intrinsic clearance came out at 7.2 mL/min/g.

On to `CC[C@H]1CC[C@H](n2c(=O)[nH]c3ncc(NC(C)=O)cc3c2=O)CC1`, for which the intrinsic clearance came to 0.5 mL/min/g.

Turning to `CC(C)[C@H]1CC[C@@H](n2c(=O)[nH]c3ncc(N)cc3c2=O)CC1`, the intrinsic clearance turned out to be 4.8 mL/min/g.

For the molecule `CC[C@H]1CC[C@@H](n2c(=O)[nH]c3ncc(N)cc3c2=O)CC1`, the intrinsic clearance worked out at 1.7 mL/min/g.

As to `CC(=O)Nc1ccc2[nH]c(=O)n([C@H]3CC[C@@H](C(C)(C)C)CC3)c(=O)c2c1`, the intrinsic clearance is < 0.5 mL/min/g.

Consider `CC[C@H]1CC[C@@H](n2c(=O)[nH]c3ccc(N)cc3c2=O)CC1`, for which the intrinsic clearance was 5.2 mL/min/g.

`CCC[C@H]1CC[C@@H](n2c(=O)[nH]c3ccc(NC(C)=O)cc3c2=O)CC1`: the intrinsic clearance turned out to be 19 mL/min/g.
